Laboratory results as given in patent US20200217837A1, “CHROMATIN PROTECTIVE THERAPEUTICS AND CHROMATIN HETEROGENEITY” (Northwestern University, priority 2016, published 2020).
Entries after “also recorded” stand apart in the source; their conditions may differ.

What was measured:
cancer cell lines [1] = test: Live cell PWS of chromatin folding/heterogeneity (D, Σ); format: cell-based; details: for capacity to reduce chromatin folding (D↓, Σ↓): PWS on live cells; for structural alteration of chromatin folding: five cell line models (A2780, M248, MDA-MB-231, MES-SA, MX2); for regulation of chromatin topology / heterogeneity: live cells, LC-PWS, within minutes of treatment where stated; for chromatin heterogeneity Σ: within 30 min, p<0.01
Procedure: Test compounds were screened for CPT activity using live cell PWS imaging. Control and 30-60 minute CPT-treated cells were imaged with live cell PWS to determine their effect on nuclear nanoscale heterogeneity (See FIG. 11A for exemplary tested compounds). […]

A2780 cells = test: LC-PWS microscopy quantification of chromatin heterogeneity; format: cell-based; details: 5 nM for 24 hours
A2780 = test: Cell survival by surface coverage (% inhibition / cell death); details: Ovarian A2780; after 48 hours, surface coverage relative to control
MDA-MB-231 = test: Cell survival by surface coverage (% inhibition); details: Breast MDA-MB-231
A2780.m248 = test: Cell survival by surface coverage (% inhibition / cell death); format: cell-based; details: for % Inhibition: Ovarian A2780.m248, after 48 hours, surface coverage relative to control
Procedure: These compounds were tested in combination with the chemotherapy drug paclitaxel.

[2] = system: pancreatic ductal carcinoma PDX model; test: In vivo validation of CPT on patient derived xenographs; details: single agent treatment
Procedure: The cell lines were treated with standard (IC50) doses of commonly used chemotherapy drugs (5-FU, Paclitaxel, Oxaliplatin, Docetaxel, Gemcitabine, FOLFIRI). […] Experiments were conducted during development of embodiments herein to test CPT in vivo on patient derived xenographs (PDX) of pancreatic ductal carcinoma (FIG. 15i).

HeLa cells [3] = test: γ-H2A.X immunofluorescence (DNA fragmentation); format: cell-based; details: Hoechst-stained cells after UV excitation versus mock-stained
Procedure: Co-registration of live cell PWS imaging and DNA strand damage using phospho-histone H2A.X was performed by immunofluorescent staining on three independent experiments. Cells were fixed for 20 min with 4% paraformaldehyde at room temperature, washed twice with phosphate buffered saline and a permeabilization/blocking step was performed with 0.1% Triton X-100 in 1% bovine serum albumin (Sigma Aldrich, St. Louis Mo.) for 20 min. Cells were again washed twice with PBS and then incubated with AlexaFluor 488 conjugated to anti-γH2A.X (serine 139 residue) rabbit monoclonal antibody (Cell Signaling, Beverly, […].) for 30 minutes. Following incubation with the antibody, cells were imaged using the FITC-EGFP filter on the live cell PWS microscope.

CHO cells [4] = test: Live cell PWS, mean nuclear Σ (chromatin nano-architecture); format: cell-based, Chinese Ovarian Hamster
Procedure: (§1) Prior to imaging, media within petri dishes was exchanged with fresh, RPMI-1640 Media (lacking phenol red pH indicator, purchased from Life Technologies) supplemented with 10% FBS (Sigma Aldrich, St. Louis Mo.). For DNA fragmentation experiments, live cell PWS images were acquired at room temperature (22° C.) and in trace CO2 (open air) conditions for cells subsequently stained with Hoechst 33342. During acquisition of time series data (UV and Controls, metabolic perturbation), cells were maintained at physiological conditions for the duration of the experiment. For imaging, a reference scattering spectra was obtained from an open surface of the substrate coverslip immersed in media prior to any cellular imaging to normalize the intensity of light scattered for each wavelength at each pixel. Σ is defined as the spectral standard deviation of our measured reflectance intensity normalized to this reference scattering spectra from the substrate-media interface. […] For Hoechst induced DNA damage experiments, significance was determined using Student's T-test with unpaired, unequal variance on nuclear Δ(Σ) between the conditions indicated in the experiment in both Mathematica v.10 and Microsoft Excel (Microsoft, Redmond, Wash.) with n=146 for Hoechst stained HeLa cells from 11 replicates and n=87 for Hoechst stained CHO cells from 5 replicates. […]

HeLa cells [5] = test: as above; format: cell-based
Procedure: as §1

[6] = system: A2780.m248 ovarian cancer cells; test: Live cell PWS screen for CPT activity (mean nuclear sigma); format: cell-based; details: 30-60 minute treated cells
MES-SA = test: Cell survival by surface coverage (% inhibition); format: cell-based; details: Sarcoma MES-SA
MES-SA MX2 = test: Cell survival by surface coverage (% inhibition); format: cell-based; details: Sarcoma MES-SA MX2
HeLa cells [7] = test: Mitochondrial membrane potential by TMRE flow cytometry; format: cell-based; details: 10 μM CCCP
Procedure: (§2) HeLa and CHO cells were grown and prepared for live cell imaging as previously described. Cell measurements for a single field of view were sequentially obtained for 3 minutes prior to treatment with CCCP. HeLa (n=31 from 6 independent experiments) and CHO (n=159 from 5 independent experiments) cells were treated with 10 μM for 15 minutes and imaged before and after treatment. Mock treated cells were incubated with 0.01% DMSO to account for the effect of DMSO solvent on the cells. […] Mitochondrial membrane potential ΔΨm was measured by flow cytometry (BD LSRII at the Northwestern Flow Cytometry Core) for tetramethylrhodamine (TMRE, purchased from Life Technologies, Carlsbad Calif.) stained cells. In brief, cells were trypsinized and immediately stained with 50 nM of TMRE for 30 minutes. Cells were washed twice with PBS after staining and suspended in 1 ml of PBS. CCCP treated cells were treated for 15 minutes to replicate conditions during live cell live cell PWS imaging. At least 20,000 cells were selected by forward and side scattering channels for each group, with a double elimination of doublets from the final analysis. Mean TMRE intensity from each replicate population was used for representative comparison between treated and untreated groups.

CHO cells [8] = test: as above; format: cell-based, Chinese Ovarian Hamster; details: 10 μM CCCP
Procedure: as §2

cancer cell lines [9] = test: Single-cell sequencing of transcriptional heterogeneity; format: cell-based
From the text: Although partial regulation of folding is achieved through molecular-specific chromatin remodelers (Refs. 12c, 40c; incorporated by reference in their entireties) (CTCF, SWI/SNF, histone modifications), a more efficient global regulation is governed by physico-chemical mechanisms (FIG. 16). A cardiovascular drug digoxin provides one such example.

**Q.** With `COc1cc(/C=C/C(=O)CC(=O)/C=C/c2ccc(O)c(OC)c2)ccc1O` [Curcumin] as the molecule, how does the “capacity to reduce chromatin folding (D↓, Σ↓)” value (cancer cell lines [1]) read?
**A.** Its value is “reduce chromatin folding”.

**Q.** Which “chromatin heterogeneity after treatment” value (A2780 cells) does the source give for `CC(=O)O[C@H]1C(=O)[C@@]2(C)[C@H]([C@H](OC(=O)c3ccccc3)[C@]3(O)C[C@H](OC(=O)[C@H](O)[C@@H](NC(=O)c4ccccc4)c4ccccc4)C(C)=C1C3(C)C)[C@]1(OC(C)=O)CO[C@@H]1C[C@@H]2O` [Paclitaxel] here?
**A.** Its value is “increase in chromatin heterogeneity”.

**Q.** What about the “% Inhibition” value (A2780) of the same molecule?
**A.** The value was 21%.

**Q.** What about the “% Inhibition” value (MDA-MB-231) of the same molecule?
**A.** Its value is 50%.

**Q.** And the “Surface coverage relative to control (% survival)” value (A2780.m248; A2780.m248)?
**A.** Its value is 43%.

**Q.** And the “% Inhibition” value (A2780.m248)?
**A.** Its value is 57%.

**Q.** What about the “structural alteration of chromatin folding” value (cancer cell lines [1]) of the same molecule?
**A.** The value was “increases”.

**Q.** What does the source list for `Cn1cc(C2=C(c3coc4ccc(F)cc34)C(=O)NC2=O)c2cc3c(cc21)OCO3` [9-ING-41]?
**A.** capacity to reduce chromatin folding (D↓, Σ↓) (cancer cell lines [1]): reduce chromatin folding; Σ / CPT strength in multiple cancer cell lines (cancer cell lines [1]; colonic, pancreatic, ovarian, and mesothelioma lines): strong CPT; also recorded: decreases Σ; tumor size [2]: continued to expand in size

**Q.** What does the source list for `CCOc1ccc(-c2nc3ccc(-c4nc5ccc(N6CCN(C)CC6)cc5[nH]4)cc3[nH]2)cc1` [Hoechst 33342]?
**A.** γ-H2A.X antibody accumulation (HeLa cells [3]): drastic accumulation; change (decrease) in mean-nuclear Σ (CHO cells [4]; Hoechst-stained, after UV exposure (excitation)): −7.1%; decrease in mean-nuclear Σ (HeLa cells [5]; Hoechst-stained, after a few seconds of UV exposure (excitation)): 17.01%

**Q.** What does the source list for `Cc1ccc(-c2cc(C(F)(F)F)nn2-c2ccc(S(N)(=O)=O)cc2)cc1` [Celecoxib]?
**A.** % Inhibition (A2780): 0%; mean nuclear sigma [6]: decrease in mean nuclear sigma; % Inhibition (A2780.m248): 0%; capacity to reduce chromatin folding (D↓, Σ↓) (cancer cell lines [1]): reduce chromatin folding; regulation of chromatin topology / heterogeneity (cancer cell lines [1]): homogenization of chromatin; also recorded: potent regulators of chromatin topology; also recorded: global regulators of chromatin heterogeneity; chromatin heterogeneity Σ (cancer cell lines [1]): Σ↓

**Q.** Which “capacity to reduce chromatin folding (D↓, Σ↓)” value (cancer cell lines [1]) does the source give for `CC(=O)Oc1ccccc1C(=O)O` [aspirin] here?
**A.** The value was “reduce chromatin folding”.

**Q.** What about the “regulation of chromatin topology / heterogeneity” value (cancer cell lines [1]) of the same molecule?
**A.** Its value is “potent regulators of chromatin topology; also recorded: global regulators of chromatin heterogeneity”.

**Q.** `CC(=O)O[C@@]12CO[C@@H]1C[C@H](O)[C@@]1(C)C(=O)[C@H](O)C3=C(C)[C@@H](OC(=O)[C@H](O)[C@@H](NC(=O)OC(C)(C)C)c4ccccc4)C[C@@](O)([C@@H](OC(=O)c4ccccc4)[C@H]21)C3(C)C` [Docetaxel] was tested. Which “% Inhibition” value (MES-SA) did it give?
**A.** The value was 65%.

**Q.** And the “% Inhibition” value (MES-SA MX2)?
**A.** Its value is 79%.

**Q.** And the “structural alteration of chromatin folding” value (cancer cell lines [1])?
**A.** The value was “increases”.

**Q.** Which “chromatin heterogeneity Σ” value (cancer cell lines [1]) does the source give for `CCCC(CCC)C(=O)O` [valproic acid] here?
**A.** Its value is “Σ↓”.

**Q.** For `O=C(O[C@@H]1Cc2c(O)cc(O)cc2O[C@@H]1c1cc(O)c(O)c(O)c1)c1cc(O)c(O)c(O)c1` [EGCG], which “capacity to reduce chromatin folding (D↓, Σ↓)” value (cancer cell lines [1]) is on record?
**A.** The value was “reduce chromatin folding”.

**Q.** `N#CC(C#N)=NNc1cccc(Cl)c1` [CCCP, carbonyl cyanide m-chlorophenyl hydrazone] was tested. Which “decrease in TMRE fluorescence” value (HeLa cells [7]) did it give?
**A.** The value was 10 fold.

**Q.** And the “ΔΨm as gauged by TMRE fluorescence” value (HeLa cells [7])?
**A.** The value was “rapidly lost ΔΨm”.

**Q.** And the “change in mean-nuclear Σ” value (CHO cells [4]; 10 μM CCCP, 15 minutes)?
**A.** Its value is “no significant increase”.

**Q.** And the “decrease in mean-nuclear Σ” value (HeLa cells [5]; 10 μM CCCP, 15 minutes)?
**A.** The value was 10%.

**Q.** And the “change in TMRE fluorescence” value (CHO cells [8])?
**A.** The value was “no significant change”.

**Q.** And the “regulation of chromatin topology / heterogeneity” value (cancer cell lines [1])?
**A.** Its value is “potent regulators of chromatin topology; also recorded: global regulators of chromatin heterogeneity”.

**Q.** What does the source list for `CC(C)[C@@H]1NC(=O)[C@H](C)OC(=O)[C@@H](C(C)C)NC(=O)[C@@H](C(C)C)OC(=O)[C@H](C(C)C)NC(=O)[C@H](C)OC(=O)[C@@H](C(C)C)NC(=O)[C@@H](C(C)C)OC(=O)[C@H](C(C)C)NC(=O)[C@H](C)OC(=O)[C@@H](C(C)C)NC(=O)[C@@H](C(C)C)OC1=O` [valinomycin]?
**A.** capacity to reduce chromatin folding (D↓, Σ↓) (cancer cell lines [1]): reduce chromatin folding; regulation of chromatin topology / heterogeneity (cancer cell lines [1]): potent regulators of chromatin topology; also recorded: global regulators of chromatin heterogeneity

**Q.** `Nc1ccn([C@@H]2O[C@H](CO)[C@@H](O)C2(F)F)c(=O)n1` [gemcitabine] was tested. Which tumor size [2] did it give?
**A.** The tumor size was “continued to expand in size”.

**Q.** `C[C@H]1O[C@@H](O[C@H]2[C@@H](O)C[C@H](O[C@H]3[C@@H](O)C[C@H](O[C@H]4CC[C@@]5(C)[C@H](CC[C@@H]6[C@@H]5C[C@@H](O)[C@]5(C)[C@@H](C7=CC(=O)OC7)CC[C@]65O)C4)O[C@@H]3C)O[C@@H]2C)C[C@H](O)[C@@H]1O` [Digoxin, digoxin] was tested. Which mean nuclear sigma [6] did it give?
**A.** The mean nuclear sigma was “decrease in mean nuclear sigma”.

**Q.** And the “capacity to reduce chromatin folding (D↓, Σ↓)” value (cancer cell lines [1])?
**A.** The value was “reduce chromatin folding”.

**Q.** What about the “chromatin D” value (cancer cell lines [1]; cell culture, within 30 min after application) of the same molecule?
**A.** The value was “D↓”.

**Q.** And the “structural alteration of chromatin folding” value (cancer cell lines [1])?
**A.** The value was “decreases chromatin folding”.

**Q.** What about the “regulation of chromatin topology / heterogeneity” value (cancer cell lines [1]) of the same molecule?
**A.** The value was “homogenization of chromatin; also recorded: potent regulators of chromatin topology; also recorded: global regulators of chromatin heterogeneity”.

**Q.** And the “chromatin heterogeneity Σ” value (cancer cell lines [1])?
**A.** Its value is “Σ↓”.

**Q.** What about the “transcriptional divergence and heterogeneity” value (cancer cell lines [9]) of the same molecule?
**A.** Its value is “lower intracellular transcriptional divergence and intercellular heterogeneity”.

**Q.** For `CC1=C(CC(=O)O)c2cc(F)ccc2/C1=C\c1ccc([S+](C)[O-])cc1` (stereo not shown) [sulindac], which “chromatin heterogeneity Σ” value (cancer cell lines [1]) is on record?
**A.** The value was “not”.
